Test results as given in ChEMBL document CHEMBL1135631, “Design and evaluation of affinity labels of functionalized amino acid anticonvulsants” (J Med Chem, 2002).

Columns and labels:
[1] = system: Mus musculus; experiment: (§1) Anticonvulsant activity using MES test in mice after intraperitoneal administration; type: functional; conditions: ip
[2] = system: Rattus norvegicus; experiment: Anticonvulsant activity using MES test in rat after oral administration; type: functional
[3] = molecular target: Metabotropic glutamate receptor 1 (Rattus norvegicus) (UniProt P23385); experiment: as §1; type: functional, organism-based; conditions: Mus musculus; target entry is the homologue from another species
[4] = Neurologic toxicity using rotarod test in mice after intraperitoneal administration; type: organism-based; conditions: mouse, in vivo, ip
[5] = Protective index as the ratio of TD50 value to that of ED50 value in mice.; type: functional
[6] = Protective index as the ratio of TD50 value to that of ED50 value in rat.; type: functional
[7] = Neurologic toxicity using rotarod test in rat after oral administration; type: organism-based; conditions: in vivo

Chain of Metabotropic glutamate receptor 1 (Rattus norvegicus) (P23385 19-1199 limits assumed): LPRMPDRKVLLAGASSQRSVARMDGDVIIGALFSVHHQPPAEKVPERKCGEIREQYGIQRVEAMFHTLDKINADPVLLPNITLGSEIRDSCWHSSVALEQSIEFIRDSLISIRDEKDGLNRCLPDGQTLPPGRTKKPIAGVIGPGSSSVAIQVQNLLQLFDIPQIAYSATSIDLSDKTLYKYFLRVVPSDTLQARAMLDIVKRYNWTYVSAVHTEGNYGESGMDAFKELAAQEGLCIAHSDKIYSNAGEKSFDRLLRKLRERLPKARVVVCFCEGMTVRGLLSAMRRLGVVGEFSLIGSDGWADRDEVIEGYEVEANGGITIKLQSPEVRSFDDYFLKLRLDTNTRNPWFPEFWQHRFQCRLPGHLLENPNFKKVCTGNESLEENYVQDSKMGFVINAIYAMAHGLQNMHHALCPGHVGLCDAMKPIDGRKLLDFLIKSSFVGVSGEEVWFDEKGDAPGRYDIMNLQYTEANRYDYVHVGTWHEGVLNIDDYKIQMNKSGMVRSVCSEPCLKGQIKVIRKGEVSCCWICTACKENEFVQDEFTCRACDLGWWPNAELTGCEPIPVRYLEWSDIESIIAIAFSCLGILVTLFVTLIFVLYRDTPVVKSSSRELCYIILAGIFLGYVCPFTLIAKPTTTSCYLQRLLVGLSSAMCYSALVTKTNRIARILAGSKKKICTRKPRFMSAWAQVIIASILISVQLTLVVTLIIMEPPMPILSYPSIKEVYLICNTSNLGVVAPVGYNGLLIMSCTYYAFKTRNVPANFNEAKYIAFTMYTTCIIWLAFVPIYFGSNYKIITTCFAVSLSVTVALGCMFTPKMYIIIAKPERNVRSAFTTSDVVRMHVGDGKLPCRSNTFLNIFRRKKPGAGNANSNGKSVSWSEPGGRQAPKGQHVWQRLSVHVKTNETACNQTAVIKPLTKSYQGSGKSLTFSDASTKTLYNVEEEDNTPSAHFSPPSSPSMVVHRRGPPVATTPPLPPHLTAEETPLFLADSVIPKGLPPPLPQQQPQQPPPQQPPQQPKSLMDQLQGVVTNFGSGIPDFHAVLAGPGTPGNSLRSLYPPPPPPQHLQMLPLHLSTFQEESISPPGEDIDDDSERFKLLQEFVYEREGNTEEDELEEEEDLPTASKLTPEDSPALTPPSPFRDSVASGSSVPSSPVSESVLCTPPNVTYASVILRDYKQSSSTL

CCC1(c2ccccc2)C(=O)NC(=O)NC1=O [PHENOBARBITAL]
ED50 [1]: 22 mg/kg
ED50 [2]: 9.1 mg/kg

COC[C@@H](NC(C)=O)C(=O)NCc1cccc(N=C=S)c1
ED50 [3]: 74 mg/kg
TD50 [4]: 120 mg/kg
PI [5]: 1.6
PI [6]: >9
TD50 [7]: > 250 mg/kg
ED50 [2]: 28 mg/kg

CCCC(NC(C)=O)C(=O)NCc1ccccc1 (racemic)
TD50 [4]: 160 mg/kg
PI [5]: 4.2
PI [6]: >30
ED50 [1]: 38 mg/kg
TD50 [7]: > 30 mg/kg
ED50 [2]: 30 mg/kg

COC[C@H](NC(C)=O)C(=O)NCc1cccc(N=C=S)c1
TD50 [4]: > 100 mg/kg
ED50 [1]: > 100 mg/kg
TD50 [7]: > 150 mg/kg
ED50 [2]: > 150 mg/kg

COCC(NC(C)=O)C(=O)NCc1ccccc1 (racemic)
PI [5]: 5.2
PI [6]: 101
TD50 [7]: 37 mg/kg

CC(=O)NC(CCCCN=C=S)C(=O)NCc1ccccc1 (racemic)
TD50 [4]: > 30 mg/kg
ED50 [1]: > 30 mg/kg
TD50 [7]: > 30 mg/kg
ED50 [2]: > 30 mg/kg

COC[C@H](NC(C)=O)C(=O)NCc1ccc(N=C=S)cc1
TD50 [4]: > 30 mg/kg
ED50 [1]: > 100 mg/kg
TD50 [7]: > 30 mg/kg
ED50 [2]: > 180 mg/kg

CCOCC(NC(C)=O)C(=O)NCc1ccccc1 (racemic)
ED50 [1]: 17 mg/kg

COC[C@H](NC(C)=O)C(=O)NCc1ccccc1
TD50 [4]: > 300 mg/kg
TD50 [7]: > 30 mg/kg
ED50 [2]: > 30 mg/kg

COC[C@@H](NC(C)=O)C(=O)NCc1ccc(N=C=S)cc1
TD50 [4]: 47 mg/kg
PI [5]: 2
PI [6]: >59
ED50 [1]: 24 mg/kg
TD50 [7]: > 250 mg/kg
ED50 [2]: 4.2 mg/kg

COC[C@@H](NC(=O)CBr)C(=O)NCc1ccccc1
TD50 [4]: > 30 mg/kg
ED50 [1]: > 300 mg/kg

COC[C@H](NC(=O)CBr)C(=O)NCc1ccccc1
TD50 [4]: > 30 mg/kg
ED50 [1]: > 30 mg/kg

O=C1NC(=O)C(c2ccccc2)(c2ccccc2)N1 [PHENYTOIN]
ED50 [2]: 30 mg/kg

CCCC(CCC)C(=O)O [VALPROIC ACID]
ED50 [1]: 270 mg/kg

C=CC(=O)NC(COC)C(=O)NCc1ccccc1 (racemic)
TD50 [4]: > 300 mg/kg
ED50 [1]: > 100 mg/kg
TD50 [7]: > 30 mg/kg
ED50 [2]: > 30 mg/kg

COC[C@@H](NC(C)=O)C(=O)NCc1ccccc1 [LACOSAMIDE]
PI [5]: 6
PI [6]: >128
TD50 [7]: > 500 mg/kg
